According to the NIST ThermoML archive (doi:10.1021/acs.jced.8b00011):
Several values for one entry are separate records, joined by “and”; a condition that tells them apart may be missing. Equal entries are not always repeated. Numbers after ± are expanded uncertainties.

Details: Liquid; for electrical conductivity: electrochemical impedance spectroscopy; for mass density: Vibrating tube method

CCCCC[P+](CC)(CC)CC.O=S(=O)([N-]S(=O)(=O)C(F)(F)F)C(F)(F)F
Details | electrical conductivity [S/m] | viscosity
298.15 K, 60200 kPa, Falling or rolling sphere viscometry | – | 188.2 ± 8.8 mPa·s
298.15 K, 76900 kPa, Frequency=0 MHz | 0.0691 ± 0.0014 | –
298.15 K, 80100 kPa, Falling or rolling sphere viscometry | – | 237.6 ± 13 mPa·s
298.15 K, 99300 kPa, Frequency=0 MHz | 0.0551 ± 0.0011 | –
298.15 K, 100600 kPa, Falling or rolling sphere viscometry | – | 299.8 ± 18 mPa·s
298.15 K, 120600 kPa, Falling or rolling sphere viscometry | – | 374.6 ± 26 mPa·s
298.15 K, 120900 kPa, Falling or rolling sphere viscometry | – | 375.1 ± 26 mPa·s
298.15 K, 126100 kPa, Frequency=0 MHz | 0.0413 ± 0.00083 | –
298.15 K, 140500 kPa, Falling or rolling sphere viscometry | – | 464.2 ± 35 mPa·s
298.15 K, 149100 kPa, Frequency=0 MHz | 0.0333 ± 0.00067 | –
298.15 K, 160800 kPa, Falling or rolling sphere viscometry | – | 575.1 ± 48 mPa·s
298.15 K, 180200 kPa, Falling or rolling sphere viscometry | – | 703.8 ± 63 mPa·s
298.15 K, 199500 kPa, Falling or rolling sphere viscometry | – | 855.3 ± 82 mPa·s
298.15 K, 225400 kPa, Frequency=0 MHz | 0.0159 ± 0.00032 | –
298.15 K, 249800 kPa, Frequency=0 MHz | 0.0127 ± 0.00026 | –
298.16 K, 600 kPa, Frequency=0 MHz | 0.164 ± 0.0034 | –
298.16 K, 1600 kPa, Frequency=0 MHz | 0.162 ± 0.0032 | –
298.16 K, 201000 kPa, Frequency=0 MHz | 0.0201 ± 0.0004 | –
303.15 K, 100 kPa, Concentric cylinders viscometry | – | 67.86 ± 1.5 mPa·s
303.15 K, 100 kPa, Falling or rolling sphere viscometry | – | 68.41 ± 2.4 mPa·s
303.15 K, 700 kPa, Falling or rolling sphere viscometry | – | 68.43 ± 2.3 mPa·s
303.15 K, 10600 kPa, Falling or rolling sphere viscometry | – | 78.1 ± 2.1 mPa·s
303.15 K, 20600 kPa, Falling or rolling sphere viscometry | – | 88.77 ± 2.6 mPa·s
303.15 K, 30400 kPa, Falling or rolling sphere viscometry | – | 100.3 ± 3.1 mPa·s
303.15 K, 40600 kPa, Falling or rolling sphere viscometry | – | 113.6 ± 3.9 mPa·s
303.15 K, 50700 kPa, Falling or rolling sphere viscometry | – | 128 ± 4.7 mPa·s
303.15 K, 60800 kPa, Falling or rolling sphere viscometry | – | 144.1 ± 5.7 mPa·s
303.15 K, 80300 kPa, Falling or rolling sphere viscometry | – | 179.8 ± 8.2 mPa·s
303.15 K, 100100 kPa, Falling or rolling sphere viscometry | – | 223.2 ± 12 mPa·s
313.15 K, 100 kPa, Concentric cylinders viscometry | – | 43.97 ± 0.99 mPa·s
313.15 K, 100 kPa, Falling or rolling sphere viscometry | – | 44.35 ± 2.3 mPa·s [middle of 5 runs]
313.15 K, 700 kPa, Falling or rolling sphere viscometry | – | 44.4 ± 2.8 mPa·s
313.15 K, 10600 kPa, Falling or rolling sphere viscometry | – | 50.22 ± 1.1 mPa·s
313.15 K, 20600 kPa, Falling or rolling sphere viscometry | – | 56.64 ± 1.3 mPa·s
313.15 K, 30500 kPa, Falling or rolling sphere viscometry | – | 63.64 ± 1.5 mPa·s
313.15 K, 40500 kPa, Falling or rolling sphere viscometry | – | 71.42 ± 1.8 mPa·s
313.15 K, 50600 kPa, Falling or rolling sphere viscometry | – | 79.95 ± 2.2 mPa·s
313.15 K, 60600 kPa, Falling or rolling sphere viscometry | – | 89.14 ± 2.6 mPa·s
313.15 K, 80300 kPa, Falling or rolling sphere viscometry | – | 109.9 ± 3.7 mPa·s
313.15 K, 99900 kPa, Falling or rolling sphere viscometry | – | 134.5 ± 5.1 mPa·s
323.14 K, 800 kPa, Frequency=0 MHz | 0.434 ± 0.0087 | –
323.14 K, 3200 kPa, Frequency=0 MHz | 0.423 ± 0.0085 | –
323.14 K, 101600 kPa, Frequency=0 MHz | 0.17 ± 0.0034 | –
323.14 K, 150900 kPa, Frequency=0 MHz | 0.113 ± 0.0023 | –
323.14 K, 175500 kPa, Frequency=0 MHz | 0.0922 ± 0.0019 | –
323.15 K, 100 kPa, Concentric cylinders viscometry | – | 30.06 ± 0.68 mPa·s
323.15 K, 100 kPa, Falling or rolling sphere viscometry | – | 29.89 ± 1.3 mPa·s [middle of 5 runs]
323.15 K, 100 kPa, Frequency=0 MHz | 0.437 ± 0.0092 | –
323.15 K, 700 kPa, Falling or rolling sphere viscometry | – | 30.1 ± 1.6 mPa·s
323.15 K, 2200 kPa, Frequency=0 MHz | 0.427 ± 0.0086 | –

Details | electrical conductivity | mass density
303.15 K, 100 kPa | – | 1298.32 ± 1.3 kg/m3 [middle of 6 runs]
303.15 K, 101.33 kPa | 0.208 S/m and 0.207 S/m | –
303.15 K, 1000 kPa | – | 1298.99 ± 1.3 kg/m3
303.15 K, 5000 kPa | – | 1301.97 ± 1.3 kg/m3
303.15 K, 10000 kPa | – | 1305.55 ± 1.3 kg/m3
303.15 K, 15000 kPa | – | 1309.08 ± 1.4 kg/m3
303.15 K, 20000 kPa | – | 1312.5 ± 1.4 kg/m3
303.15 K, 25000 kPa | – | 1315.86 ± 1.4 kg/m3
303.15 K, 30000 kPa | – | 1319.11 ± 1.4 kg/m3
303.15 K, 35000 kPa | – | 1322.31 ± 1.5 kg/m3
303.15 K, 40000 kPa | – | 1325.42 ± 1.5 kg/m3
303.15 K, 45000 kPa | – | 1328.53 ± 1.6 kg/m3
303.15 K, 50000 kPa | – | 1331.53 ± 1.6 kg/m3
308.15 K, 101.33 kPa | 0.256 S/m and 0.255 S/m | –
313.15 K, 100 kPa | – | 1290.13 ± 1.8 kg/m3 [middle of 6 runs]
313.15 K, 101.33 kPa | 0.31 S/m | –
313.15 K, 1000 kPa | – | 1291.1 ± 1.3 kg/m3
313.15 K, 5000 kPa | – | 1294.18 ± 1.3 kg/m3
313.15 K, 10000 kPa | – | 1297.91 ± 1.3 kg/m3
313.15 K, 15000 kPa | – | 1301.54 ± 1.3 kg/m3
313.15 K, 20000 kPa | – | 1305.07 ± 1.4 kg/m3
313.15 K, 25000 kPa | – | 1308.48 ± 1.4 kg/m3
313.15 K, 30000 kPa | – | 1311.85 ± 1.4 kg/m3
313.15 K, 35000 kPa | – | 1315.16 ± 1.5 kg/m3
313.15 K, 40000 kPa | – | 1318.37 ± 1.5 kg/m3
313.15 K, 45000 kPa | – | 1321.53 ± 1.5 kg/m3
313.15 K, 50000 kPa | – | 1324.64 ± 1.6 kg/m3
318.15 K, 101.33 kPa | 0.371 S/m and 0.372 S/m | –
323.15 K, 100 kPa | – | 1281.76 ± 1.8 kg/m3 [middle of 6 runs]
323.15 K, 101.33 kPa | 0.437 S/m and 0.44 S/m and 0.441 S/m | –
323.15 K, 1000 kPa | – | 1282.87 ± 1.3 kg/m3
